Experiments:
Type in all cases: in vivo
Myzus persicae [1] = assay: Myzus persicae spray test (Chinese cabbage leaf discs); details: foliar, 120 h, 500 g/ha, after 5-6 days, read-out: efficacy
Method in brief: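 Chinese cabbage leaf discs infested with all stages of green peach aphid were sprayed with compound formulated in acetone/DMF and emulsifier-containing water. Efficacy in % was scored after 5-6 days, with 100% meaning all aphids killed and 0% none killed.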

Phaedon cochleariae = Phaedon cochleariae spray test; details: foliar, 168 h, Chinese cabbage leaf discs, larvae, after 7 days, read-out: efficacy
Description: Phaedon cochleariae—Spray Test
To produce a suitable preparation of active compound, 1 part by weight of active compound is dissolved using the specified parts by weight of solvent and made up with water containing an emulsifier concentration of 1000 ppm until the desired concentration is attained. To produce further test concentrations, the formulation is diluted with emulsifier-containing water.
After 7 days, the efficacy in % is determined. 100% means that all the beetle larvae have been killed; 0% means that no beetle larvae have been killed.

Myzus persicae [2] = assay: Myzus persicae oral test; details: 120 h, 20 ppm, oral uptake, after 5 days, read-out: efficacy
Method in brief: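 Compound dissolved in acetone, diluted in water, then mixed 50:150 μl with IPL41 insect medium (33%+15% sugar). Mixed-population green peach aphids feed through a parafilm seal on the solution; mortality scored as % efficacy after 5 days (100% = all killed).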

Meloidogyne incognita = Meloidogyne incognita test; details: 336 h, lettuce, after 14 days, read-out: nematicidal efficacy (formation of galls)
Method in brief: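 Active compound in acetone, diluted with water, added to sand-filled vessels with M. incognita eggs/larvae and lettuce seeds. After 14 days, efficacy scored by root gall formation: 100% = no galls, 0% = galls equal to untreated control.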

SMILES	pest or weed control at 500 g/ha (Myzus persicae [1])	pest or weed control at 500 g/ha (Phaedon cochleariae)	pest or weed control at 20 ppm (Myzus persicae [2])	pest or weed control at 20 ppm (Meloidogyne incognita)
Cc1cc(F)c(F)cc1S(=O)(=O)NC(=O)c1cn(C)c(-c2ccccc2Cl)n1 [Example 290]	100%	100%	100%	
O=C(NS(=O)(=O)c1ccc(Cl)cc1)c1nc(-c2ccccc2Cl)n(-c2ccccc2)c1Cl [Example 105]		100%		
COc1ccc(Cl)c(S(=O)(=O)NC(=O)c2nc(-c3ccccc3Cl)n(C)c2Br)c1 [Example 222]		100%		100%
COc1ccc(Br)c(S(=O)(=O)NC(=O)c2cn(C)c(-c3c(F)cccc3F)n2)c1 [Example 143]	90%	100%	90%	
Cc1ccccc1S(=O)(=O)NC(=O)c1cn(C)c(-c2ncccc2Cl)n1 [Example 540]	100%	100%	100%	
COc1cc(S(=O)(=O)NC(=O)c2cc(C)n(-c3ncccc3Br)n2)c(C)cc1Br [Example 300]	90%	100%	100%	
Cn1cc(C(=O)NS(=O)(=O)c2ccc(Cl)c(Cl)c2)nc1-c1ccccc1Cl [Example 165]	90%	100%	90%	
COc1ccc(Cl)c(S(=O)(=O)NC(=O)c2nc(-c3c(F)cccc3F)c(C)n2C)c1 [Example 307]		100%		100%
CCc1ccc(Cl)cc1S(=O)(=O)NC(=O)c1cn(C)c(-c2cccc(Cl)c2Cl)n1 [Example 461]	100%	100%	100%	
COc1ccc(C)c(S(=O)(=O)NC(=O)c2cn(C)c(-c3cccc(Cl)c3Cl)n2)c1 [Example 460]	100%	83%		
CCc1ccccc1S(=O)(=O)NC(=O)c1cn(C)c(-c2nccc3ccccc23)n1 [Example 469]	90%	100%	100%	
Cn1cc(C(=O)NS(=O)(=O)c2ccccc2Cl)nc1-c1cccc2ccccc12 [Example 479]		100%		90%
Cc1ccccc1S(=O)(=O)NC(=O)c1cn(C)c(-c2nccc3ccccc23)n1 [Example 465]	100%	100%	100%	
Cn1cc(C(=O)NS(=O)(=O)c2c(Cl)cccc2Br)nc1-c1c(F)cccc1F [Example 430]	100%	100%	100%	
COc1cc(S(=O)(=O)NC(=O)c2cn(C)c(-c3ncccc3F)n2)c(C)cc1Br [Example 610]	100%	100%	100%	
Cn1cc(C(=O)NS(=O)(=O)c2ccccc2Cl)nc1-c1nccc2ccccc12 [Example 464]	100%	100%	90%	
CCc1ccc(CC)c(S(=O)(=O)NC(=O)c2cn(C)c(-c3c(F)cccc3F)n2)c1 [Example 340]		100%		90%
Cc1cccc(Cl)c1S(=O)(=O)NC(=O)c1cc(C)n(-c2ncccc2Br)n1 [Example 304]	100%	100%	100%	
COc1ccc(Cl)c(S(=O)(=O)NC(=O)c2nc(-c3c(F)cccc3F)n(C)c2C)c1 [Example 334]		100%		90%

SMILES	pest or weed control at 500 g/ha (Myzus persicae [1])	pest or weed control at 500 g/ha (Phaedon cochleariae)	pest or weed control at 20 ppm (Myzus persicae [2])	pest or weed control at 20 ppm (Meloidogyne incognita)
COc1ccc(Cl)c(S(=O)(=O)NC(=O)c2nc(-c3ccccc3Cl)n(C)c2Cl)c1 [Example 577]		100%		100%
Cc1cccc(C(C)C)c1S(=O)(=O)NC(=O)c1cn(C)c(-c2c(F)cccc2F)n1 [Example 361]		100%		90%
Cc1ccccc1S(=O)(=O)NC(=O)c1nc(-c2c(F)cccc2F)n(C)c1C [Example 196]		100%	100%	
Cc1c(-c2c(F)cccc2F)nc(C(=O)NS(=O)(=O)c2ccccc2Cl)n1C [Example 308]		100%		90%
CCOc1ccc(Cl)c(S(=O)(=O)NC(=O)c2cn(C)c(-c3c(F)cccc3F)n2)c1 [Example 387]	100%	100%	100%	
Cn1cc(C(=O)NS(=O)(=O)c2c(Cl)cccc2C(F)(F)F)nc1-c1cccc(Cl)c1Cl [Example 467]	100%	100%	100%	
Cn1cc(C(=O)NS(=O)(=O)c2c(Cl)cccc2Br)nc1-c1cccc(Cl)c1Cl [Example 466]	90%	100%	100%	
COc1ccc(OC)c(S(=O)(=O)NC(=O)c2nc(-c3c(F)cccc3F)n(C)c2C)c1 [Example 413]	90%	83%		
COc1cc(S(=O)(=O)NC(=O)c2cn(C)c(-c3ncccc3Cl)n2)c(C)cc1Br [Example 611]	90%	100%	100%	
Cc1ccc(F)cc1S(=O)(=O)NC(=O)c1cc(C)n(-c2ncccc2Br)n1 [Example 303]	100%	83%	100%	
Cc1c(-c2c(F)cccc2F)nc(C(=O)NS(=O)(=O)c2ccccc2Br)n1C [Example 309]		100%		100%
CCc1ccccc1S(=O)(=O)NC(=O)c1cc(C)n(-c2ncccc2Cl)n1 [Example 284]	100%		100%	90%
Cc1cc(C(=O)NS(=O)(=O)c2ccccc2Cl)nn1-c1c(F)cccc1F [Example 1]	100%		100%	100%
Cn1cc(C(=O)NS(=O)(=O)Cc2ccccc2Cl)nc1-c1ccccc1Cl [Example 62]	90%		100%	90%
Cn1cc(C(=O)NS(=O)(=O)c2cccc(Cl)c2)nc1-c1c(F)cccc1F [Example 45]	90%		90%	100%
Cn1cc(C(=O)NS(=O)(=O)c2c(Cl)cccc2Cl)nc1-c1c(F)cccc1F [Example 93]	90%		100%	90%
CCCc1cccc(C(F)(F)F)c1S(=O)(=O)NC(=O)c1cn(C)c(-c2c(F)cccc2F)n1 [Example 370]	90%	100%	100%	
Cn1cc(C(=O)NS(=O)(=O)c2cccc3ccn(C)c23)nc1-c1c(F)cccc1F [Example 323]	100%		100%	90%

From US20200288710A1, “SUBSTITUTED SULPHONAMIDES FOR CONTROLLING ANIMAL PESTS” (BAYER CROPSCIENCE AKTIENGESELLSCHAFT, priority 2016, published 2020)
